Measurements taken from US6770467B2, “Screening method for ligands with class II P13 kinase modulating activity” (Ludwig Institute for Cancer Research, priority 1997, dated 2004).
Where two headings read alike, the source gives them in different places.

Assays:
PI3K-C2α = target: T1, PI3K-C2α (Homo sapiens, UniProt O00443); assay: PI 3-kinase lipid kinase assay with recombinant GST-PI3K-C2α, PtdIns as substrate; assay type: biochemical
T1 construct: made in house; host or cells: Sf9 insect cells (baculovirus, pAcGex vector)
Description: Typically, PI 3-kinase assays were performed in a total volume of 50 μl containing 20 mM Hepes pH7.4. 100 mM NaCl, 0.1 mM EGTA, 0.1% β-mercaptoethanol, and 200 μM phosphoinositide. After preincubating sonicated lipid with sample for 10 minutes, the reactions were initiated upon the addition of 2.5 mM MgCl2, 100 mM ATP (0.2 μCiγ[^32 P] ATP). Assays were incubated at 30° C. for 20 minutes and terminated with acidified chloroform:methanol. The extracted lipid products were analysed by thin layer chromatography using Silica gel 60 plates and chloroform:methanol:4M ammonium hydroxide (45:35:10) for assays examining phosphorylation of Ptdlns. When separations of PtdIns 3P, PtdIns (3,4) P2 and PItdIns (3,4,5) P3 was required, propan-1-ol: 2M acetic acid (65:35) was used. Phosphorylated lipids were visualised by either autoradiography or by phosphoimage analysis (Molecular Dynamics).
The enzymatic activity and substrate specificity were investigated and compared to that of GST-p110α expressed in the same system.
(§1) The effect of these inhibitors on the lipid kinase activity of PI3K-C2α was examined, using PtdIns as a substrate, in the presence of increasing concentrations of each inhibitor.

p110α = p110α (UniProt P32871); assay: PI 3-kinase lipid kinase assay with recombinant GST-p110α, PtdIns as substrate; assay type: biochemical
Description: Typically, PI 3-kinase assays were performed in a total volume of 50 μl containing 20 mM Hepes pH7.4. 100 mM NaCl, 0.1 mM EGTA, 0.1% β-mercaptoethanol, and 200 μM phosphoinositide. After preincubating sonicated lipid with sample for 10 minutes, the reactions were initiated upon the addition of 2.5 mM MgCl2, 100 mM ATP (0.2 μCiγ[^32 P] ATP). Assays were incubated at 30° C. for 20 minutes and terminated with acidified chloroform:methanol. The extracted lipid products were analysed by thin layer chromatography using Silica gel 60 plates and chloroform:methanol:4M ammonium hydroxide (45:35:10) for assays examining phosphorylation of Ptdlns. When separations of PtdIns 3P, PtdIns (3,4) P2 and PItdIns (3,4,5) P3 was required, propan-1-ol: 2M acetic acid (65:35) was used. Phosphorylated lipids were visualised by either autoradiography or by phosphoimage analysis (Molecular Dynamics). Assays were linear with respect to time and enzyme addition.
as §1

T1 sequence (O00443 148-1686): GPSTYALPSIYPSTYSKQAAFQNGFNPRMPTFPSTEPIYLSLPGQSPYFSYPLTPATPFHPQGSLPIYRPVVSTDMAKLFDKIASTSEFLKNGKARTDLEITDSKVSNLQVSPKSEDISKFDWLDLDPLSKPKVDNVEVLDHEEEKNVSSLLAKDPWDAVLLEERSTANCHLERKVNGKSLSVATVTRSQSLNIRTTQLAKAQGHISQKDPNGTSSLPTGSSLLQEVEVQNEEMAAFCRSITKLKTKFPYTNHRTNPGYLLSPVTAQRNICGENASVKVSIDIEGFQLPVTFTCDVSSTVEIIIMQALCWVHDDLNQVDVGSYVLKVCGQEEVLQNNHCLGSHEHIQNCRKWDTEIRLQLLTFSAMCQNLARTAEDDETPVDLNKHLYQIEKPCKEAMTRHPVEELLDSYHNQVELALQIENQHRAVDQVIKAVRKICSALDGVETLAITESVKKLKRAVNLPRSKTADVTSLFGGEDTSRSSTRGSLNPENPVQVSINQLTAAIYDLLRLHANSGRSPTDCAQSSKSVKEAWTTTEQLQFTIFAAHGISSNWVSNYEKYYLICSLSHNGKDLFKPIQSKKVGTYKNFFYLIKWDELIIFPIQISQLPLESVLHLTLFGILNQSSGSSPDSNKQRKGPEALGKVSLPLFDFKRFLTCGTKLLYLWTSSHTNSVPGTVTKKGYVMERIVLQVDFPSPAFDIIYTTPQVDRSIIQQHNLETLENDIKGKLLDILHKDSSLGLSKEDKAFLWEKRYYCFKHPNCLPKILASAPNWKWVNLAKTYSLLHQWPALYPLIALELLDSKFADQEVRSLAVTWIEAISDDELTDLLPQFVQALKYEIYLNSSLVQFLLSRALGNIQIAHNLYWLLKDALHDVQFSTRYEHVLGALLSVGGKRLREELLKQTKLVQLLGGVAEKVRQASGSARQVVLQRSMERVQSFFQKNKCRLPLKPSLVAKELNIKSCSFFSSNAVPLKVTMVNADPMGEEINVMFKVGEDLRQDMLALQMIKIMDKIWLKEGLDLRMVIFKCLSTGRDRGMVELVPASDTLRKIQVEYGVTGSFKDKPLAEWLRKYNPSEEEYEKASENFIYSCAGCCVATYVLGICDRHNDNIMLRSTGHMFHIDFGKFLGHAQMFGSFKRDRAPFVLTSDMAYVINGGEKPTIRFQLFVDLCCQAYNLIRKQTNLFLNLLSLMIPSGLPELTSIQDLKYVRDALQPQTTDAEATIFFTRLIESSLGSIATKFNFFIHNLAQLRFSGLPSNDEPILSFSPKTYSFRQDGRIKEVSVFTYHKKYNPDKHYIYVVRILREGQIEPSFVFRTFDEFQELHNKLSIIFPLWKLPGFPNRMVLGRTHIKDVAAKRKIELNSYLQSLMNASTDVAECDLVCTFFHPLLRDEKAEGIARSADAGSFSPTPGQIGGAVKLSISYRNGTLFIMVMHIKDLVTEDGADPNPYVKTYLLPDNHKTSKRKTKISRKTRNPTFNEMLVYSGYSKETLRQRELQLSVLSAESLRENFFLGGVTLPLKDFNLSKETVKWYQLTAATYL

| SMILES | IC50 (PI3K-C2α) [µM] | difference in sensitivity between PI3K-C2α and p110α (PI3K-C2α; LY294002, PI3K-C2α less sensitive than p110α) | concentration giving maximal attenuation of PI3K-C2α lipid kinase activity (PI3K-C2α; LY294002, PtdIns substrate) [mM] | concentration giving maximal inhibition of p110α (p110α; LY294002, FIG. 5B) [µM] | IC50 (PI3K-C2α; Wortmannin, PtdIns substrate, FIG. 5A) [µM] | IC50 (p110α; read-out: IC50 of p110α lipid kinase activity, Wortmannin, FIG. 5A) [µM] |
| --- | --- | --- | --- | --- | --- | --- |
| O=c1cc(N2CCOCC2)oc2c(-c3ccccc3)cccc12 [LY294002, 2-(4-morpholinyl)-8-phenyl-4H-1-benzopyran-4-one] | 20 | approximately one order of magnitude | 2 | 300 |  |  |
| COC[C@H]1OC(=O)c2coc3c2[C@@]1(C)C1=C(C3=O)[C@@H]2CCC(=O)[C@@]2(C)C[C@H]1OC(C)=O [Wortmannin] |  |  |  |  | 0.2 | 0.003 |
